Laboratory results from paper PMC4900628, “Critical Evaluation of P2X7 Receptor Antagonists in Selected Seizure Models” (PLoS ONE, 2016).
Several values for one entry are separate records, joined by “and”; a condition that tells them apart may be missing. Equal values may be shown once. Read-outs that look alike come from different tables or passages of the source.

Assays:
human P2X7R = target: T1, human P2X7R (Homo sapiens, UniProt Q99572); test: fluorometric Ca2+ assay (ATP-induced [Ca2+]i response) in HEKhP2X7 cells; assay type: cell-based; conditions: fluo-4, 1 mM ATP, read-out: Potency IC50 ± SEM, Human P2X7R
T1 construct: expressed in transfected cells
T1 sequence (Q99572 1-595): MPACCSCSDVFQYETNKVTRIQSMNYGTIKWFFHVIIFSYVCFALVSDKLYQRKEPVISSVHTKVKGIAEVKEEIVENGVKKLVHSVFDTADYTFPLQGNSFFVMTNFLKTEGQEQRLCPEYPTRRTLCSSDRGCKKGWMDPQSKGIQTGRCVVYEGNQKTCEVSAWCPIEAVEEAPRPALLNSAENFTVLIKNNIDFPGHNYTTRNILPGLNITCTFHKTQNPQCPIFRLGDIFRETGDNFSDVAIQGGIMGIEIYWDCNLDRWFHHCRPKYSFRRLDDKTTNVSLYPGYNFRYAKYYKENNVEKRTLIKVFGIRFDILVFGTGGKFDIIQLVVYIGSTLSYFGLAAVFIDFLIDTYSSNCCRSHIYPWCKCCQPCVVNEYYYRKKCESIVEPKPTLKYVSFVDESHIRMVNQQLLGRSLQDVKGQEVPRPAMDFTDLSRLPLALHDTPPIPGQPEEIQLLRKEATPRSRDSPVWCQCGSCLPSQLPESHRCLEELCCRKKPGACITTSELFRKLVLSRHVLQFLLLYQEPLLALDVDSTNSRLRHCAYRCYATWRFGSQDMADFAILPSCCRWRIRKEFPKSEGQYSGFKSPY
Protocol: Cells were grown in a humidified incubator at 37°C in an atmosphere supplemented with 5% CO2. […] HEK293mP2X7 were cultured in DMEM under similar conditions as described above, but containing 100 μg/ml zeocin (Invitrogen). […] Expression of the transgene was induced by supplementing the medium with 1 μg/ml tetracycline (Sigma-Aldrich, Taufkirchen, Germany) 24 h prior to the experiments. All fluorometric Ca^2+ assays in cell suspensions were performed in 384-microwell plates (Corning, No. 3655, Lowell, MA, USA) with a fluorescence-imaging microplate reader (POLARstar Omega, BMG Labtech, Offenburg, Germany) (for details, see [61, 68]). […] Microwell plates were repetitively scanned every 16 s in the fast scanning mode of the device. […] Data were normalized to the baseline values before ATP application (F/F0). […] ATP-solution was freshly prepared in Mg^2+-free HBS solution and adjusted to pH 7.4. Aliquots of stock solutions were stored at -20°C and freshly diluted with the appropriate HBS solution. […] Results are expressed as mean ± SEM. […] In the PTZ-T, the number of animals in the group with clonic seizures and the latency time were analysed using Fisher's exact probability test and the Mann-Whitney rank sum test, respectively. For multiple comparisons of the latency time a one-way ANOVA with the Holm-Sidak post hoc test was used. The influence of AFC on the plasma and brain concentrations of the antiepileptic drugs was statistical compared using the same procedure. In the PTZ-kindling model, the mean seizure stage within a group was calculated in relation to the number of PTZ-injections. Statistical comparison between vehicle- and compound-treated groups in this model was performed with two-way repeated measures ANOVA, followed by the Holm-Sidak post hoc test. […] In fully kindled rats, the calculated mean seizure stage within a group after vehicle- and compound-treatment were compared using a paired t-test. P < 0.05 was the accepted minimum level of significance.

[1] = Plasma and brain concentration in rats (after PTZ-kindling); assay type: in vivo; conditions: for concentration at 45 min / Kp at 0.75 h: ip; for Kp at 0.75 h: 45 min
Protocol: One day after kindling procedure, selected rats (groups with n ≥ 5) were again pre-treated with the compounds of interest and sacrificed at the assumed peak times of brain concentration by CO2 inhalation. Blood was collected intracardially by heart centesis via glass pipettes supplemented with heparin-Na (ratiopharm, Ulm, Germany; 10μl of 5.000 I.U./ml) and separated by centrifuging (1500xg for 10 min) at 6–8°C. The plasma was stored at -20°C in plastic tubes. After blood sample collection, rats were decapitated and brains were quickly dissected. After removing the adherent blood by tissue paper and cutting off the cerebellum, the samples were fresh frozen using liquid nitrogen. Brain tissue was stored at -80°C and delivered to the different laboratories on dry ice. For mice (groups with n = 6), a similar procedure was used for the preparation of plasma and brain samples. In experiments in which AFC was co-administered with carbamazepine or ethosuximide, drug concentrations in plasma and brain were estimated to detect potential pharmacokinetic interactions.
Samples from experiments with AFC were analysed at the Lead Discovery Center (Dortmund, Germany). Briefly, AFC, carbamazepine and ethosuximide were extracted from plasma and homogenized brain by protein precipitation using acetonitrile. Resulting filtrates were analysed by liquid chromatography tandem-mass spectrometry (LC-MS/MS) using a Prominence UFLC system (Shimadzu, Duisburg, Germany) coupled to a QTrap 5500 instrument (ABSciex, Darmstadt, Germany). The compounds were separated on a Zorbax Eclipse Plus C18 column (Agilent Technologies, Santa Clara, CA, USA) with an acetonitrile/water gradient containing 0.1% formic acid as solvent. Chromatographic conditions and mass spectrometer parameters were optimized for each analyte. Plasma and brain concentrations of the compounds were calculated by means of a standard curve.
Plasma and brain samples from experiments with JNJ-47965567 were quantified at the Neuroscience Therapeutic Area, Janssen Research & Development (San Diego, CA, USA) using an API 4000 MS/MS system (Applied Biosystems, Concord, ON, Canada) interfaced with an Agilent 1100 Series HPLC (Agilent Technologies). To measure the percentage of P2X7R brain occupancy of JNJ-47965567, ex vivo receptor binding autography was performed as recently described. Briefly, 20 μm-thick hippocampal slices were prepared and P2X7R radioligand binding was determined at room temperature with 10 nM [^3H] JNJ-54232334 (Janssen) in 50 mM Tris-HCl incubation buffer containing 0.1% bovine serum albumin. The non-specific binding was measured using adjacent sections incubated in the additional presence of 100 μM A-740003 (Tocris Bioscience, Bristol UK). Sections were incubated for 1 min, washed in ice-cold incubation buffer (4 times, 5 min each), followed by two dips in deionized water and rapidly dry under a stream of cold air before acquisition. Quantitative analysis was performed using the Tracer ß-Imager with M3 Vision software (Biospace Lab, Paris, France). Ex vivo receptor labelling was expressed as the percentage of receptor labelling in corresponding brain areas of vehicle-treated control animals.

## Cc1c(S(=O)(=O)[O-])oc2c1C(=O)C(=O)c1c-2ccc2c1CCCC2(C)C.[Na+] [Tanshinone TIIAS, tanshinone IIS sulfonic sodium]
Human P2X7R
  IC50: 300 nM and 310 nM
[1]; 30 mg/kg i.p., 45 min before, n = 5
  mean brain concentration: 500 ± 100 nM
[1]; rat, brain, 30 mg/kg i.p., after 45 min, read-out: rat brain concentration
  concentration at 45 min: 500 nM
[1]; rat, brain, 30 mg/kg, 30 mg/kg i.p., read-out: brain to plasma ratio
  Kp at 0.75 h: 0.02
[1]; rat, plasma, 30 mg/kg i.p., 45 min before, n = 5, read-out: mean blood plasma concentration
  concentration at 45 min: 31100 ± 5900 nM

## CCOc1ccc(Nc2ccc(/C(=C3C=C/C(=[N+](/CC)Cc4cccc(S(=O)(=O)[O-])c4)C=C/3C)c3ccc(N(CC)Cc4cccc(S(=O)(=O)O)c4)cc3C)cc2)cc1 [Brilliant Blue G]
Human P2X7R
  IC50: 980 ± 70 nM
[1]; 50 mg/kg i.p., 45 min before, n = 7
  mean brain concentration: 20 ± 2 nM
[1]; rat, brain, 50 mg/kg i.p., 45 min after injection, read-out: rat brain concentration
  concentration at 45 min: 20 nM
[1]; rat, brain, 50 mg/kg, 50 mg/kg i.p., read-out: brain to plasma ratio
  Kp at 0.75 h: 0.01
[1]; rat, plasma, 50 mg/kg i.p., 45 min before, n = 7, read-out: mean blood plasma concentration
  concentration at 45 min: 1600 ± 300 nM

## O=C(NCC1(N2CCN(c3ccccc3)CC2)CCOCC1)c1cccnc1Sc1ccccc1 [JNJ-47965567, N-[[4-(4-phenyl-piperazin-1-yl)tetrahydro-2H-pyran-4-yl]-methyl]-2-(phenyl-thio) nicotinamide]
Human P2X7R
  IC50: 5 ± 0.5 nM
[1]; 15 mg/kg s.c., 30 min before, n = 5, listed as JNJ, 15 mg/kg
  mean brain concentration: 5000 ± 1100 nM
[1]; rat, brain, sc, 15 mg/kg s.c., 30 min before, n = 5, read-out: mean brain concentration
  concentration at 30 min: 5000 nM
[1]; rat, brain, sc, 15 mg/kg, 15 mg/kg s.c., 30 min, read-out: brain to plasma ratio
  Kp at 0.5 h: 1.2
[1]; rat, plasma, sc, 15 mg/kg s.c., 30 min before, n = 5, read-out: mean blood plasma concentration
  concentration at 30 min: 4000 ± 1000 nM
